Assay results published in EPA's ToxValDB 9.5.
In brackets after ≈: the same amount, converted by molar mass. Several values for one entry are separate records, joined by “and”; a condition that tells them apart may be missing. Identical values can stand only once.

Assays:
[1] = tested on: Rattus norvegicus
[2] = tested on: Rattus norvegicus; conditions: subchronic; duration: 63 days; oral; gavage; M; Sprague-Dawley; Clinical Observation: Piloerection SalivationMatted fur + Body Weight Changes: decrease
[3] = tested on: Rattus norvegicus; experiment: LC0; higher = less toxic; conditions: acute; Inhalation; Wistar
[4] = tested on: Oryctolagus sp.; experiment: LD0; higher = less toxic; conditions: acute; dermal; occlusive; New Zealand
[5] = tested on: Bacteria; conditions: In vitro / microbiological growth inhibition; Growth inhibition
[6] = tested on: Cavia porcellus; conditions: chronic; duration: 26 weeks; inhalation; M/F; Guinea Pig; methemoglobin increase, spleen toxicity
[7] = tested on: Mus musculus; conditions: chronic; duration: 26 weeks; inhalation; M/F; methemoglobin increase, spleen toxicity
[8] = tested on: Rattus norvegicus; conditions: inhalation
[9] = tested on: Rattus norvegicus; conditions: chronic; duration: 104 weeks; oral; diet; M/F; Crl:CD1; Immune, Hematologic
[10] = tested on: Guinea Pig, Mouse, Rat; conditions: subchronic; inhalation; intermittent; Spleen: Pathology
[11] = tested on: Mus musculus; conditions: chronic; duration: 2 years; oral; diet; M/F; Tif MAG; Uterine pathology
[12] = tested on: Monkey; conditions: chronic; oral; F; Cyanomolgus; Altered serum hormones & menstrual cyclicity
[13] = tested on: Cavia porcellus; conditions: acute; oral; Guinea Pig
[14] = tested on: Mammals; conditions: acute; Inhalation
[15] = tested on: Mus musculus; conditions: acute; oral
[16] = tested on: Cavia porcellus; experiment: LD100; higher = less toxic; conditions: acute; oral; Guinea Pig
[17] = tested on: Mammals; experiment: LD100; higher = less toxic; conditions: acute; Oral
[18] = tested on: Rattus norvegicus; experiment: LD100; higher = less toxic; conditions: acute
[19] = tested on: Mus musculus; conditions: uterotrophic; duration: 3 days; injection; subcutaneous; Active
[20] = tested on: Oryctolagus sp.; conditions: uterotrophic; injection; subcutaneous; Active
[21] = tested on: Rattus norvegicus; conditions: uterotrophic, Active
[22] = tested on: Homo sapiens; conditions: duration: 10 days, oral, F, Withdrawal bleeding
[23] = short-term, duration: 4 weeks, inhalation, M, Sprague-Dawley
[24] = short-term, duration: 4 weeks, inhalation, Sprague-Dawley

With `Nc1ccccc1[N+](=O)[O-]` [2-Nitrobenzenamine] the NOAEL ([1]; developmental, duration: 6 days, oral, gavage, Sprague-Dawley) was 600 mg/kg-day, the NOAEL ([1]; reproduction developmental, duration: 6 days, oral, gavage, F, Sprague-Dawley) was 100 mg/kg-day and the LOAEL [1, 23] was 93 mg/m3. The NOAEL [1, 23] was 9.8 mg/m3, the LOAEL [1, 24] was 73 mg/m3 and the NOAEL [1, 24] was 30 mg/m3. For the same compound, the NOAEL ([1]; short-term, duration: 14 days, oral, gavage, Sprague-Dawley) was ≥ 100 mg/kg-day, the NOAEL [2] was 50 mg/kg-day and the LC0 [3] was > 2530 mg/m3. The LD0 [4] was > 7940 mg/kg.

`CC1(C)S[C@@H]2[C@H](NC(=O)[C@H](N)c3ccc(O)cc3)C(=O)N2[C@H]1C(=O)O` [Amoxicillin] showed an NOAEC [5] of 0.1 µg/mL.

Compound `Nc1ccccc1` [Aniline] has an NOAEL ([1]; short-term, duration: 2 weeks, inhalation) of 38.1 mg/m3, an NOAEL [6] of 19 mg/m3 and an NOAEL [7] of 19 mg/m3. For the same compound, the NOAEL ([8]; chronic, duration: 26 weeks, M/F, methemoglobin increase, spleen toxicity) was 19 mg/m3, the LOAEL ([8]; short-term, M, Mild spleen toxicity 2-Week) was 64.7 mg/m3 and the LOAEL [9] was 7 mg/kg-day. The NOAEL [10] was 19 mg/m3.

`O=C(NC(=O)c1c(F)cccc1F)Nc1ccc(Cl)c(Oc2ncc(C(F)(F)F)cc2Cl)c1` [Fluazuron] showed an NOEL [11] of 4.3 mg/kg-day.

`C=C1C[C@H]2[C@@H]3C=C(C)C4=CC(=O)CC[C@]4(C)[C@H]3CC[C@]2(C)[C@@]1(OC(C)=O)C(C)=O` [Melengestrol acetate] gave an LOEL [12] of 0.005 mg/kg-day.

In the case of `C1COCCN1` [Morpholine], the LD50 [13] is reported as 900 mg/kg, the LC50 [14] is reported as 12 mg/L (≈ 138 µM) and the LD50 [15] is reported as 525 mg/kg. The LD50 ([1]; acute, inhalation) was ≥ 7.8 mg/L and ≤ 8.2 mg/L, the LD100 [16] was 100 mg/kg and the LD100 [17] was 1220 mg/kg. It also gave an LD100 ([18]; injection, Intraperitoneal) of 400 mg/kg and an LD100 ([18]; oral) of 100 mg/kg.

In the case of `CC(=O)[C@H]1CC[C@H]2[C@@H]3CCC4=CC(=O)CC[C@]4(C)[C@H]3CC[C@]12C` [Progesterone], the LEL [19] is reported as 0.087 mg, the “LEL (gamma)” value [19] is reported as 30 and the LEL [20] is reported as 1 mg/day. For the same compound, the LEL ([21]; duration: 2 days, oral) was 0.5 mg/kg-day, the LEL ([21]; duration: 4 days, injection, intraperitoneal) was 50 mg/kg-day and the LEL ([21]; duration: 14 days, oral) was 10 mg. It also gave an LOEL ([22]; Clinical) of 3.3 mg/kg-day and an LOEL ([22]; clinical) of 3.3 mg/kg-day.
